Test results from US9850283B2, “Macrocyclic inhibitors of the PD-1/PD-L1 and CD80(B7-1)/PD-L1 protein/protein interactions” (BRISTOL-MYERS SQUIBB COMPANY, priority 2013, dated 2017).
pIC50: −log10 of the molar value. Positions of bridges follow the written chain, without caps; N, C: chain ends. Non-standard residues stand in square brackets, D forms with d. Residues, ends and D or L forms follow the SMILES beside them. Ala(indol-4-yl) = N[C@@H](Cc1cccc2[nH]ccc12)C(=O)O; Tyr(3,5-Br2) = N[C@@H](Cc1cc(Br)c(O)c(Br)c1)C(=O)O; Trp(5-Cl) = N[C@@H](Cc1c[nH]c2ccc(Cl)cc12)C(=O)O; Phe(3,4-(OMe)2) = COc1ccc(C[C@H](N)C(=O)O)cc1OC; Phe(3,4-Cl2) = N[C@@H](Cc1ccc(Cl)c(Cl)c1)C(=O)O; Phe(3-CF3) = N[C@@H](Cc1cccc(C(F)(F)F)c1)C(=O)O; Tyr(3-I) = N[C@@H](Cc1ccc(O)c(I)c1)C(=O)O; Phe(4-Cl) = N[C@@H](Cc1ccc(Cl)cc1)C(=O)O; Ala(2-furyl) = N[C@@H](Cc1ccco1)C(=O)O; Phe(2-Cl) = N[C@@H](Cc1ccccc1Cl)C(=O)O; Phe(4-Me) = Cc1ccc(C[C@H](N)C(=O)O)cc1; Phe(2-Me) = Cc1ccccc1C[C@H](N)C(=O)O; NMeF = CN[C@@H](Cc1ccccc1)C(=O)O; NMeNle = CCCC[C@H](NC)C(=O)O; Sar = CNCC(=O)O

Legend:
Human PD-L1/PD-1 = biological target: T1, Human PD-L1/PD-1 (Homo sapiens, UniProt Q9NZQ7); test: HTRF PD-1-Ig/PD-L1-His binding assay (human PD-L1); details: cluster symbol; read-out: HTRF IC50 cluster
T1 construct: made in house; host or cells: HEK293T
T1 sequence (Q9NZQ7 with tags, fused parts or gaps): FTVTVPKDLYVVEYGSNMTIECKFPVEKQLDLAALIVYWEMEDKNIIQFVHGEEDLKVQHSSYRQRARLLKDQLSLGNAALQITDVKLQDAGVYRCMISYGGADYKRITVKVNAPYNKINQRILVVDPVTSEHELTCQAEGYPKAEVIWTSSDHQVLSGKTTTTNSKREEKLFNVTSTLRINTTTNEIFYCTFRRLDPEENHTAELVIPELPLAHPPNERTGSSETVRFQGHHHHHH
Method in brief: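 Soluble PD-1-Ig binding to PD-L1-His measured by HTRF in dPBS with 0.1% BSA and 0.05% Tween-20. Detection used europium cryptate anti-Ig antibody (1 nM final) and APC anti-His antibody (20 nM final) added on top of the binding reaction.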

[1] = biological target: T2, LK35.2-hPD-L1 cells / PE-labeled PD-1-Ig (Homo sapiens, UniProt Q9NZQ7); test: LK35.2-hPD-L1 cell binding high-content screening assay; type: cell-based; details: cluster symbol; cell line of CBA not given (LK35.2-hPD-L1 or 293T-hPD-L1); read-out: CBA IC50 cluster
T2 construct: expressed in transfected cells; host or cells: LK35.2 mouse B cell line
T2 sequence (Q9NZQ7 19-290): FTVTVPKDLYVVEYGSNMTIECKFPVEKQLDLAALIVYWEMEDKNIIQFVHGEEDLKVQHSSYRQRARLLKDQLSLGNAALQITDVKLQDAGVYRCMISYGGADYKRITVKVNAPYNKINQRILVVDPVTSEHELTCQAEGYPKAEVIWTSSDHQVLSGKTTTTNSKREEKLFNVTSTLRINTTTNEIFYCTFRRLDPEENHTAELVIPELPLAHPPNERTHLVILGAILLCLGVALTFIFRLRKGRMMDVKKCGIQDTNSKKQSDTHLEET
Method in brief: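 Using overnight-cultured LK35.2-hPD-L1 mouse B cells, compound was co-incubated with phycoerythrin-tagged human PD-1-Ig (final 1 nM) at 37 °C for one hour. Unbound label was removed by triple dPBS washing prior to high-content image acquisition and analysis.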

| SMILES | pIC50 (Human PD-L1/PD-1) | pIC50 [1] |
| --- | --- | --- |
| CCCC[C@@H]1NC(=O)[C@H](Cc2ccc(O)cc2)NC(=O)[C@H](Cc2c[nH]c3ccccc23)NC(=O)CN(C)C(=O)[C@H](Cc2ccc(O)cc2)NC(=O)[C@H](Cc2ccccc2)N(C)C(=O)[C@H](C(C)C)NC(=O)[C@H](CC(=O)O)NC(=O)CN(C)C(=O)[C@H](CCCC)N(C)C(=O)[C@H](Cc2ccccc2)N(C)C(=O)[C@H](Cc2ccccc2)NC(=O)CSC[C@@H](C(=O)NCC(N)=O)NC1=O [Example 3097] (HELM PEPTIDE1{[O=C(C[*:3])[*:2]].F.[meF].[CCCC[C@@H](C(=O)[*:2])N(C)[*:1]].[Sar].D.V.[meF].Y.[Sar].W.Y.[Nle].C.G.[am]}$PEPTIDE1,PEPTIDE1,1:R3-14:R3$$$V2.0) | 7.52 to 8.17 | 7.14 to 8.32 |
| CCCC[C@H]1C(=O)N(C)CC(=O)N[C@@H](CC(=O)O)C(=O)N[C@@H](C(C)C)C(=O)N(C)[C@@H](Cc2ccccc2)C(=O)N[C@@H](Cc2ccc(O)cc2)C(=O)N(C)CC(=O)N[C@@H](Cc2c[nH]c3ccccc23)C(=O)N[C@@H](Cc2ccc(O)cc2)C(=O)N[C@@H](Cc2ccc(Cl)cc2)C(=O)N[C@H](C(=O)NCC(N)=O)CSCC(=O)N[C@@H](Cc2ccccc2)C(=O)N(C)[C@@H](Cc2ccccc2)C(=O)N1C [Example 3098] ({CH2CO}-F[NMeF][NMeNle][Sar]DV[NMeF]Y[Sar]WY[Phe(4-Cl)]CG-NH2; thioether N-13) | < 7.52 | 7.14 to 8.32 |
| CCCC[C@H]1C(=O)N(C)CC(=O)N[C@@H](CC(=O)O)C(=O)N[C@@H](C(C)C)C(=O)N(C)[C@@H](Cc2ccccc2)C(=O)N[C@@H](Cc2ccc(O)cc2)C(=O)N(C)CC(=O)N[C@@H](Cc2c[nH]c3ccccc23)C(=O)N[C@@H](Cc2ccc(Cl)cc2)C(=O)N[C@@H](CC(C)C)C(=O)N[C@H](C(=O)NCC(N)=O)CSCC(=O)N[C@@H](Cc2ccccc2)C(=O)N(C)[C@@H](Cc2ccccc2)C(=O)N1C [Example 3099] ({CH2CO}-F[NMeF][NMeNle][Sar]DV[NMeF]Y[Sar]W[Phe(4-Cl)]LCG-NH2; thioether N-13) | < 7.52 | < 7.13 |
| CCCC[C@H]1C(=O)N(C)CC(=O)N[C@@H](CC(=O)O)C(=O)N[C@@H](C(C)C)C(=O)N(C)[C@@H](Cc2ccccc2)C(=O)N[C@@H](Cc2ccc(O)cc2)C(=O)N(C)CC(=O)N[C@@H](Cc2c[nH]c3ccccc23)C(=O)N[C@@H](Cc2ccc(Cl)c(Cl)c2)C(=O)N[C@@H](CC(C)C)C(=O)N[C@H](C(=O)NCC(N)=O)CSCC(=O)N[C@@H](Cc2ccccc2)C(=O)N(C)[C@@H](Cc2ccccc2)C(=O)N1C [Example 3100] ({CH2CO}-F[NMeF][NMeNle][Sar]DV[NMeF]Y[Sar]W[Phe(3,4-Cl2)]LCG-NH2; thioether N-13) | < 7.52 | < 7.13 |
| CCCC[C@H]1C(=O)N(C)CC(=O)N[C@@H](CC(=O)O)C(=O)N[C@@H](C(C)C)C(=O)N(C)[C@@H](Cc2ccccc2)C(=O)N[C@@H](Cc2ccc(O)cc2)C(=O)N(C)CC(=O)N[C@@H](Cc2c[nH]c3ccccc23)C(=O)N[C@@H](Cc2ccc(O)cc2)C(=O)N[C@@H](CC(C)C)C(=O)N[C@H](C(=O)NCC(N)=O)CSCC(=O)N[C@@H](Cc2ccco2)C(=O)N(C)[C@@H](Cc2ccccc2)C(=O)N1C [Example 3101] ({CH2CO}-[Ala(2-furyl)][NMeF][NMeNle][Sar]DV[NMeF]Y[Sar]WYLCG-NH2; thioether N-13) | < 7.52 | < 7.13 |
| CCCC[C@H]1C(=O)N(C)CC(=O)N[C@@H](CC(=O)O)C(=O)N[C@@H](C(C)C)C(=O)N(C)[C@@H](Cc2ccccc2)C(=O)N[C@@H](Cc2ccc(O)cc2)C(=O)N(C)CC(=O)N[C@@H](Cc2c[nH]c3ccccc23)C(=O)N[C@@H](Cc2ccc(O)cc2)C(=O)N[C@@H](CC(C)C)C(=O)N[C@H](C(=O)NCC(N)=O)CSCC(=O)N[C@@H](Cc2ccc(OC)c(OC)c2)C(=O)N(C)[C@@H](Cc2ccccc2)C(=O)N1C [Example 3102] ({CH2CO}-[Phe(3,4-(OMe)2)][NMeF][NMeNle][Sar]DV[NMeF]Y[Sar]WYLCG-NH2; thioether N-13) | < 7.52 | < 7.13 |
| CCCC[C@H]1C(=O)N(C)CC(=O)N[C@@H](CC(=O)O)C(=O)N[C@@H](C(C)C)C(=O)N(C)[C@@H](Cc2ccccc2)C(=O)N[C@@H](Cc2ccc(O)cc2)C(=O)N(C)CC(=O)N[C@@H](Cc2c[nH]c3ccccc23)C(=O)N[C@@H](Cc2ccc(O)cc2)C(=O)N[C@@H](CC(C)C)C(=O)N[C@H](C(=O)NCC(N)=O)CSCC(=O)N[C@@H](Cc2cccc3[nH]ccc23)C(=O)N(C)[C@@H](Cc2ccccc2)C(=O)N1C [Example 3103] ({CH2CO}-[Ala(indol-4-yl)][NMeF][NMeNle][Sar]DV[NMeF]Y[Sar]WYLCG-NH2; thioether N-13) | < 7.52 | < 7.13 |
| CCCC[C@H]1C(=O)N(C)CC(=O)N[C@@H](CC(=O)O)C(=O)N[C@@H](C(C)C)C(=O)N(C)[C@@H](Cc2ccccc2)C(=O)N[C@@H](Cc2ccc(O)cc2)C(=O)N(C)CC(=O)N[C@@H](Cc2c[nH]c3ccccc23)C(=O)N[C@@H](Cc2ccc(O)cc2)C(=O)N[C@@H](CC(C)C)C(=O)N[C@H](C(=O)NCC(N)=O)CSCC(=O)N[C@@H](Cc2ccccc2Cl)C(=O)N(C)[C@@H](Cc2ccccc2)C(=O)N1C [Example 3104] ({CH2CO}-[Phe(2-Cl)][NMeF][NMeNle][Sar]DV[NMeF]Y[Sar]WYLCG-NH2; thioether N-13) | < 7.52 | < 7.13 |
| CCCC[C@H]1C(=O)N(C)CC(=O)N[C@@H](CC(=O)O)C(=O)N[C@@H](C(C)C)C(=O)N(C)[C@@H](Cc2ccccc2)C(=O)N[C@@H](Cc2ccc(O)cc2)C(=O)N(C)CC(=O)N[C@@H](Cc2c[nH]c3ccccc23)C(=O)N[C@@H](Cc2ccc(O)cc2)C(=O)N[C@@H](CC(C)C)C(=O)N[C@H](C(=O)NCC(N)=O)CSCC(=O)N[C@@H](Cc2ccccc2C)C(=O)N(C)[C@@H](Cc2ccccc2)C(=O)N1C [Example 3105] ({CH2CO}-[Phe(2-Me)][NMeF][NMeNle][Sar]DV[NMeF]Y[Sar]WYLCG-NH2; thioether N-13) | < 7.52 | < 7.13 |
| CCCC[C@H]1C(=O)N(C)CC(=O)N[C@@H](CC(=O)O)C(=O)N[C@@H](C(C)C)C(=O)N(C)[C@@H](Cc2ccccc2)C(=O)N[C@@H](Cc2ccc(O)cc2)C(=O)N(C)CC(=O)N[C@@H](Cc2c[nH]c3ccccc23)C(=O)N[C@@H](Cc2ccc(O)cc2)C(=O)N[C@@H](CC(C)C)C(=O)N[C@H](C(=O)NCC(N)=O)CSCC(=O)N[C@@H](Cc2cccc(C(F)(F)F)c2)C(=O)N(C)[C@@H](Cc2ccccc2)C(=O)N1C [Example 3106] ({CH2CO}-[Phe(3-CF3)][NMeF][NMeNle][Sar]DV[NMeF]Y[Sar]WYLCG-NH2; thioether N-13) | < 7.52 | 7.14 to 8.32 |
| CCCC[C@H]1C(=O)N(C)CC(=O)N[C@@H](CC(=O)O)C(=O)N[C@@H](C(C)C)C(=O)N(C)[C@@H](Cc2ccccc2)C(=O)N[C@@H](Cc2ccc(O)cc2)C(=O)N(C)CC(=O)N[C@@H](Cc2c[nH]c3ccccc23)C(=O)N[C@@H](Cc2ccc(O)cc2)C(=O)N[C@@H](Cc2ccc(C)cc2)C(=O)N[C@H](C(=O)NCC(N)=O)CSCC(=O)N[C@@H](Cc2ccccc2)C(=O)N(C)[C@@H](Cc2ccccc2)C(=O)N1C [Example 3107] ({CH2CO}-F[NMeF][NMeNle][Sar]DV[NMeF]Y[Sar]WY[Phe(4-Me)]CG-NH2; thioether N-13) | 7.52 to 8.17 | 7.14 to 8.32 |
| CCCC[C@H]1C(=O)N(C)CC(=O)N[C@@H](CC(=O)O)C(=O)N[C@@H](C(C)C)C(=O)N(C)[C@@H](Cc2ccccc2)C(=O)N[C@@H](Cc2c[nH]c3ccc(Cl)cc23)C(=O)N(C)CC(=O)N[C@@H](Cc2c[nH]c3ccccc23)C(=O)N[C@@H](Cc2ccc(O)cc2)C(=O)N[C@@H](CC(C)C)C(=O)N[C@H](C(=O)NCC(N)=O)CSCC(=O)N[C@@H](Cc2ccccc2)C(=O)N(C)[C@@H](Cc2ccccc2)C(=O)N1C [Example 3109] ({CH2CO}-F[NMeF][NMeNle][Sar]DV[NMeF][Trp(5-Cl)][Sar]WYLCG-NH2; thioether N-13) | < 7.52 | 7.14 to 8.32 |
| CCCC[C@H]1C(=O)N(C)CC(=O)N[C@@H](CC(=O)O)C(=O)N[C@@H](C(C)C)C(=O)N(C)[C@@H](Cc2ccccc2)C(=O)N[C@@H](Cc2cccc3[nH]ccc23)C(=O)N(C)CC(=O)N[C@@H](Cc2c[nH]c3ccccc23)C(=O)N[C@@H](Cc2ccc(O)cc2)C(=O)N[C@@H](CC(C)C)C(=O)N[C@H](C(=O)NCC(N)=O)CSCC(=O)N[C@@H](Cc2ccccc2)C(=O)N(C)[C@@H](Cc2ccccc2)C(=O)N1C [Example 3110] ({CH2CO}-F[NMeF][NMeNle][Sar]DV[NMeF][Ala(indol-4-yl)][Sar]WYLCG-NH2; thioether N-13) | 7.52 to 8.17 | 8.33 to 9.80 |
| CCCC[C@H]1C(=O)N(C)CC(=O)N[C@@H](CC(=O)O)C(=O)N[C@@H](C(C)C)C(=O)N(C)[C@@H](Cc2ccccc2)C(=O)N[C@@H](Cc2ccc(O)c(I)c2)C(=O)N(C)CC(=O)N[C@@H](Cc2c[nH]c3ccccc23)C(=O)N[C@@H](Cc2ccc(O)cc2)C(=O)N[C@@H](CC(C)C)C(=O)N[C@H](C(=O)NCC(N)=O)CSCC(=O)N[C@@H](Cc2ccccc2)C(=O)N(C)[C@@H](Cc2ccccc2)C(=O)N1C [Example 3111] ({CH2CO}-F[NMeF][NMeNle][Sar]DV[NMeF][Tyr(3-I)][Sar]WYLCG-NH2; thioether N-13) | < 7.52 | 7.14 to 8.32 |
| CCCC[C@H]1C(=O)N(C)CC(=O)N[C@@H](CC(=O)O)C(=O)N[C@@H](C(C)C)C(=O)N(C)[C@@H](Cc2ccccc2)C(=O)N[C@@H](Cc2ccc(O)cc2)C(=O)N(C)CC(=O)N[C@@H](Cc2c[nH]c3ccccc23)C(=O)N[C@@H](Cc2cc(Br)c(O)c(Br)c2)C(=O)N[C@@H](CC(C)C)C(=O)N[C@H](C(=O)NCC(N)=O)CSCC(=O)N[C@@H](Cc2ccccc2)C(=O)N(C)[C@@H](Cc2ccccc2)C(=O)N1C [Example 3112] ({CH2CO}-F[NMeF][NMeNle][Sar]DV[NMeF]Y[Sar]W[Tyr(3,5-Br2)]LCG-NH2; thioether N-13) | < 7.52 | < 7.13 |
